Values of other authors as cited in PMC2765482 (Journal of medicinal chemistry, 2009).
Marks after values point to notes of the source that are not given here.

Experiments:
[1] = test system: N,N′-Ac2-L-Lys-D-Ala-D-Lac (3); conditions: for Association Constants 3 (Ka): ligand N,N′-Ac2-L-Lys-D-Ala-D-Lac, ref [4]
[2] = test system: Staphylococcus aureus strain ATCC 25923 (vancomycin-sensitive); conditions: vancomycin-sensitive strain ATCC 25923; ref [18b] (text: ref [4],[18])
[3] = test system: N,N′-Ac2-L-Lys-D-Ala-D-Ala (2); conditions: ligand N,N′-Ac2-L-Lys-D-Ala-D-Ala; ref [4]
[4] = test system: Enterococcus faecalis strain BM4166 (vancomycin-resistant, VanA); conditions: ref [18b]
[5] = test system: Enterocococci bacterial strains, VanA and VanB; conditions: VanA and VanB resistant versus sensitive; ref [1d,k]
[6] = test system: vancomycin-sensitive bacteria and vancomycin-resistant Enterococci (VRE); conditions: against vancomycin-sensitive bacteria and VRE; ref [9]
[7] = versus vancomycin; ref [11]

Substance	Association Constants 3 (Ka) [1]	MIC S. aureus [2]	Association Constants 2 (Ka) [3]	MIC E. faecalis [4]	reduction of affinity for the ligand on D-Ala to D-Lac modification (NH→O) ([1]; D-Ala-D-Lac versus D-Ala-D-Ala ligand, ref [1d,k]) [fold]	drop in antimicrobial activity [5] [fold]	more active than vancomycin [6]	enhancement of antimicrobial properties [7] [fold]
vancomycin aglycon [Compound 5]	1.2 ^f ×10^2 M^−1	0.625 ^e µg/mL	1.7 ^f ×10^5 M^−1	640 ^e µg/mL				
Vancomycin [Compound 1]	1.8 ^f ×10^2 M^−1	1.25 ^e µg/mL	2.0 ^f ×10^5 M^−1	2000 ^e µg/mL	1000	1000		
Chlorobiphenyl vancomycin							ca. 100 fold	
N-demethylvancomycin								2
